Values of other authors as cited in patent US20210319872A1, “DRUG AND DEVICE COMBINATION PRODUCTS WITH IMPROVED SAFETY AND EFFICACY PROFILES” (priority 2016, published 2021).
Like-named read-outs stand apart in the source and are kept apart here.

In the case of `CC(C)(C)NCC(O)COc1cccc2c1CCC(=O)N2` (stereo not drawn) [Carteolol (Cartrol)], the Asthenia (in vivo) is given as “Neurologic: Asthenia (7%.), Dizziness (4% to 15%.), Headache”, the “Burning sensation in eye” value (in vivo) is given as “Ophthalmic: Blurred vision, Burning sensation in eye (25%),” and the Conjunctival edema (in vivo) is given as “Conjunctival edema (25%), Conjunctival hyperemia (25%),”. The Conjunctival hyperemia (in vivo) was “Conjunctival edema (25%), Conjunctival hyperemia (25%),”, the Dizziness (in vivo) was “Neurologic: Asthenia (7%.), Dizziness (4% to 15%.), Headache” and the Epiphora (in vivo) was “Epiphora (25%), Eye irritation (25%)”. For the same compound, the Eye irritation (in vivo) was “Epiphora (25%), Eye irritation (25%)”, the Headache (in vivo) was “(4% to 17%.), Insomnia (2% to 12%.)” and the Insomnia (in vivo) was “(4% to 17%.), Insomnia (2% to 12%.)”.
For `O=C(O)C(O)C(O)C(=O)O.c1cnc2cc3c(cc2n1)[C@@H]1CNC[C@H]3C1` [Chantix], the Acquired night blindness (in vivo) is given as “Ophthalmic: Acquired night blindness (rare), Blurred vision”, the Angina (in vivo) is given as “Cardiovascular: Angina (2.3%), Myocardial infarction (2%)” and the Constipation (in vivo) is given as “Gastrointestinal: Constipation (5% to 8%), Flatulence (6% to 9%),”. For the same compound, the Depression (in vivo) was “Psychiatric: Abnormal behavior, Depression (3.5% to 11%),”, the Dream disorder (in vivo) was “Neurologic: Dream disorder (9% to 13%), Headache (11% to 19%),” and the Flatulence (in vivo) was “Gastrointestinal: Constipation (5% to 8%), Flatulence (6% to 9%),”. For the same compound, the Headache (in vivo) was “Neurologic: Dream disorder (9% to 13%), Headache (11% to 19%),”, the Hostile behavior (in vivo) was “Hostile behavior (2%), Mood disorder (2.3%), Suicidal behavior,” and the Insomnia (in vivo) was “Insomnia (10% to 19%)”. For the same compound, the Mood disorder (in vivo) was “Hostile behavior (2%), Mood disorder (2.3%), Suicidal behavior,”, the Myocardial infarction (in vivo) was “Cardiovascular: Angina (2.3%), Myocardial infarction (2%)” and the Nausea (in vivo) was “Nausea (30%), Vomiting (5% to 11%)”. For the same compound, the Retinal vascular disorder (in vivo) was “(infrequent), Retinal vascular disorder (rare), Subcapsular cataract”, the “Serious side effect, Neurologic” value (in vivo) was “Neurologic: Cerebrovascular accident” and the “Serious side effect, Psychiatric” value (in vivo) was “Psychiatric: Abnormal behavior, Depression (3.5% to 11%),”. For the same compound, the Subcapsular cataract (in vivo) was “(rare), Transient blindness (rare), Visual disturbance (infrequent)”, the “Suicidal behavior, and/or ideation” value (in vivo) was “and/or ideation (6% to 11%)” and the Transient blindness (in vivo) was “(rare), Transient blindness (rare), Visual disturbance (infrequent)”. For the same compound, the Visual disturbance (in vivo) was “(rare), Transient blindness (rare), Visual disturbance (infrequent)” and the Vomiting (in vivo) was “Nausea (30%), Vomiting (5% to 11%)”.
For `NS(=O)(=O)c1cc(C2(O)NC(=O)c3ccccc32)ccc1Cl` (stereo not drawn) [Chlorthalidone (Hygroton)], the “Common side effect listed (incidence not given)” value (in vivo) is listed as “Endocrine metabolic: Hyperuricemia”.
In the case of `CN(C)CCCC1(c2ccc(F)cc2)OCc2cc(C#N)ccc21` (stereo not drawn) [Citalopram (Celexa)], the Agitation (in vivo) is given as “Psychiatric: Agitation (3% to 10%)”, the Cerebrovascular accident (in vivo) is given as “Neurologic: Cerebrovascular accident (0.1% to less than 1%)” and the Constipation (in vivo) is given as “Gastrointestinal: Constipation (13%), Diarrhea (8%), Nausea (20%”. The Diaphoresis (in vivo) was “Dermatologic: Diaphoresis (5% to 18%)”, the Diarrhea (in vivo) was “Gastrointestinal: Constipation (13%), Diarrhea (8%), Nausea (20%” and the Disorder of ejaculation (in vivo) was “Reproductive: Disorder of ejaculation (6.1%)”. For the same compound, the Dizziness (in vivo) was “Neurologic: Dizziness (14%), Headache (18%), Insomnia (15%),”, the Fatigue (in vivo) was “Other: Fatigue (5%)” and the Headache (in vivo) was “Neurologic: Dizziness (14%), Headache (18%), Insomnia (15%),”. The Insomnia (in vivo) was “Neurologic: Dizziness (14%), Headache (18%), Insomnia (15%),”, the Myocardial infarction (in vivo) was “Cardiovascular: Myocardial infarction (0.1% to 1%), Prolonged QT” and the Nausea (in vivo) was “Gastrointestinal: Constipation (13%), Diarrhea (8%), Nausea (20%”. The “Prolonged QT interval” value (in vivo) was “interval (0.5% to 1.9%), Torsades de pointes”, the Sedated (in vivo) was “Sedated (15%), Somnolence (18%), Tremor (8% to 16%)” and the Somnolence (in vivo) was “Sedated (15%), Somnolence (18%), Tremor (8% to 16%)”. The Tremor (in vivo) was “Sedated (15%), Somnolence (18%), Tremor (8% to 16%)”, the Vomiting (in vivo) was “to 21%), Vomiting (4% to 20%), Xerostomia (17% to 20%)” and the Xerostomia (in vivo) was “to 21%), Vomiting (4% to 20%), Xerostomia (17% to 20%)”.
For `COC(=O)[C@H](c1ccccc1Cl)N1CCc2sccc2C1` [Clopidogrel (Plavix ®)], the Agranulocytosis (in vivo) is given as “Hematologic: Agranulocytosis (Less than 1%), Aplastic anemia”, the Aplastic anemia (in vivo) is given as “(less then 1%), Bleeding, Major (0.8% to 3.7%), Pancytopenia” and the “Bleeding, Major” value (in vivo) is given as “(less then 1%), Bleeding, Major (0.8% to 3.7%), Pancytopenia”. The “Bleeding, Non-major” value (in vivo) was “Hematologic: Bleeding, Non-major (3.6% to 5.1%)”, the Gastrointestinal hemorrhage (in vivo) was “Gastrointestinal: Colitis, Gastrointestinal hemorrhage (2%; 2.7%” and the Intraocular hemorrhage (in vivo) was “Ophthalmic: Intraocular hemorrhage (0.05%)”.
For `COc1ccc2c3c1O[C@H]1[C@@H](O)C=C[C@H]4[C@@H](C2)N(C)CC[C@@]341` [Codeine], the “Common side effect, Gastrointestinal” value (in vivo) is listed as “Gastrointestinal: Constipation, Nausea, Vomiting”, the “Common side effect, Neurologic” value (in vivo) is listed as “Neurologic: Dizziness, Lightheadedness, Sedated, Somnolence” and the “Common side effect, Respiratory” value (in vivo) is listed as “Respiratory: Dyspnea”. The “Serious side effect, Cardiovascular” value (in vivo) was “Cardiovascular: Hypotension”, the “Serious side effect, Gastrointestinal” value (in vivo) was “Gastrointestinal: Bowel obstruction, Pancreatitis” and the “Serious side effect, Neurologic” value (in vivo) was “Neurologic: CSF pressure: raised, Seizure”. The “Serious side effect, Respiratory” value (in vivo) was “Respiratory: Respiratory depression”.
In the case of `Cn1c(CNc2ccc(C(=N)N)cc2)nc2cc(C(=O)N(CCC(=O)O)c3ccccn3)ccc21` [Dabigatran (Pradaxa)], the Bleeding (in vivo) is listed as “prophylaxis, 10.5%; nonvalvular atrial fibrillation, 16.6%)”, the “Bleeding, Major” value (in vivo) is listed as 0.3% to 1.4%; nonvalvular atrial fibrillation, 3.3%), Thrombosis and the Gastroesophageal reflux disease (in vivo) is listed as “disease (Atrial fibrillation, 5.5%), Gastrointestinal hemorrhage”. For the same compound, the Indigestion (in vivo) was “pulmonary embolism, 7.5%)” and the Myocardial infarction (in vivo) was “embolism, 0.32% to 0.66%; nonvalvular atrial fibrillation, 0.7%)”.
For `O=C(Nc1c(Cl)cncc1Cl)c1ccc(OC(F)F)c(OCC2CC2)c1` [Daliresp], the Backache (in vivo) is listed as “Musculoskeletal: Backache (3.2%)”, the Decrease in appetite (in vivo) is listed as 2.1% and the Diarrhea (in vivo) is listed as 9.5%. The Dizziness (in vivo) was 2.1%, the Headache (in vivo) was 4.4% and the Influenza (in vivo) was “Immunologic: Influenza (2.8%)”. For the same compound, the Insomnia (in vivo) was 2.4%, the Nausea (in vivo) was “Nausea (4.7%)” and the “Serious side effect, Psychiatric” value (listed without frequency) was “Psychiatric: Suicidal thoughts”.
For `C[C@H]1O[C@@H](O[C@H]2[C@@H](O)C[C@H](O[C@H]3[C@@H](O)C[C@H](O[C@H]4CC[C@@]5(C)[C@H](CC[C@@H]6[C@@H]5CC[C@]5(C)[C@@H](C7=CC(=O)OC7)CC[C@]65O)C4)O[C@@H]3C)O[C@@H]2C)C[C@H](O)[C@@H]1O` [Digitoxin], the “Common side effects, listed without incidence” value (in vivo) is given as “Enlarged Breasts” and the “Infrequent side effects, listed” value (in vivo) is given as “Sinus Bradycardia”.
For `COc1ccc([C@@H]2Sc3ccccc3N(CCN(C)C)C(=O)[C@@H]2OC(C)=O)cc1` [Diltiazem (Cardizem, Tiazac)], the Bradyarrhythmia (in vivo) is listed as “Cardiovascular: Bradyarrhythmia (1.7% to 3.6%), Peripheral”, the Congestive heart failure (in vivo) is listed as “Cardiovascular: Congestive heart failure (less than 2%), Heart” and the Cough (in vivo) is listed as “Respiratory: Cough (2%)”. For the same compound, the Dizziness (in vivo) was “Neurologic: Dizziness (3.5% to 6.4%), Headache (4.6%)”, the Fatigue (in vivo) was “Other: Fatigue (4.8%)” and the Headache (in vivo) was “Neurologic: Dizziness (3.5% to 6.4%), Headache (4.6%)”. For the same compound, the Peripheral edema (in vivo) was “edema (4.6% to 8%)”.
For `OCCN(CCO)c1nc(N2CCCCC2)c2nc(N(CCO)CCO)nc(N3CCCCC3)c2n1` [Dipyridamole], the Bronchospasm (IV) is listed as “Respiratory: Bronchospasm (IV, 0.2%)”, the Chest pain (IV) is listed as “Cardiovascular: Chest pain (IV, up to 30%), Electrocardiogram” and the Dizziness (IV) is listed as 11.8%. The Flushing (IV) was 3.4%, the Myocardial infarction (IV) was 0.1% and the Ventricular tachycardia (IV) was “tachycardia (IV, 0.2%)”. For the same compound, the Abdominal discomfort (oral) was “Gastrointestinal: Abdominal discomfort (oral, 6.1%)”, the Dizziness (oral) was 13.6% and the Headache (oral) was 2.3%. The Rash (oral) was 2.3%.
In the case of `CCCC(CCC)C(=O)O.CCCC(CCC)C(=O)[O-].[Na+]` [Divalproex (Depakote)], the Asthenia (in vivo) is given as “Neurologic: Asthenia (6% to 27%), Dizziness (up to 25%), Feeling”, the Backache (in vivo) is given as 1% to less than 5%; migraine, 8%) and the “Common side effects, listed without incidence” value (in vivo) is given as “Ophthalmic: Amblyopia, Blurred vision, Diplopia (16%)”. For the same compound, the Diplopia (in vivo) was “Ophthalmic: Amblyopia, Blurred vision, Diplopia (16%)”, the Dizziness (in vivo) was “Neurologic: Asthenia (6% to 27%), Dizziness (up to 25%), Feeling” and the Feeling nervous (in vivo) was “nervous (up to 11%), Headache (31%), Insomnia (up to 15%),”. The Headache (in vivo) was “nervous (up to 11%), Headache (31%), Insomnia (up to 15%),”, the Indigestion (in vivo) was 23%), Indigestion (8% to 11%), Loss of appetite (4% to 12%), and the Infectious disease (in vivo) was “Other: Infectious disease (12% to 20%), Influenza (12%)”. The Influenza (in vivo) was “Other: Infectious disease (12% to 20%), Influenza (12%)”, the Insomnia (in vivo) was “nervous (up to 11%), Headache (31%), Insomnia (up to 15%),” and the Nausea (in vivo) was “Nausea (26% to 48%), Vomiting (15% to 27%)”. For the same compound, the Ototoxicity - deafness (in vivo) was “Otic: Ototoxicity - deafness (greater than 1% to less than 5%)”, the Palpitations (in vivo) was “Cardiovascular: Palpitations (greater than 1% to less than 5%),” and the Pancreatitis (in vivo) was “Gastrointestinal: Pancreatitis (greater than 1% to less than 5%)”. The Somnolence (in vivo) was “Somnolence (Adult, 7% to 30%; pediatric, greater than 5%),”, the Tachycardia (in vivo) was “Tachycardia (greater than 1% to less than 5%)” and the “Thrombocytopenia, Dose-related” value (in vivo) was “Dose-related (1% to 27%)”. For the same compound, the Tremor (in vivo) was “Tremor (1% to 57%)” and the Vomiting (in vivo) was “Nausea (26% to 48%), Vomiting (15% to 27%)”.
In the case of `CNCC[C@H](Oc1cccc2ccccc12)c1cccs1` [Duloxetine (Cymbalta)], the Constipation (in vivo) is listed as “Gastrointestinal: Constipation (9% to 10%), Decrease in appetite”, the Diaphoresis (in vivo) is listed as “Dermatologic: Diaphoresis (Adult, 6%; pediatric, less than 2%)” and the Diarrhea (in vivo) is listed as “(6% to 10%), Diarrhea (Adult, 9%; pediatric, 6%), Nausea (18% to”. For the same compound, the Dizziness (in vivo) was “Neurologic: Asthenia, Dizziness (Adult, 9%; pediatric, 8%),”, the Headache (in vivo) was “Headache (Adult, 13% to 14%; pediatric, 18%), Hypersomnia,” and the Hypertension (in vivo) was “Cardiovascular: Hypertension (2%)”. The Insomnia (in vivo) was “Insomnia (7% to 10%), Sedated, Somnolence”, the Myocardial infarction (in vivo) was “Cardiovascular: Hypertensive crisis, Myocardial infarction (0.01%” and the Xerostomia (in vivo) was 23%), Xerostomia (Adult, 11% to 14%; pediatric, 2%).
For `CN1CCc2nc(C(=O)N[C@@H]3C[C@@H](C(=O)N(C)C)CC[C@@H]3NC(=O)C(=O)Nc3ccc(Cl)cn3)sc2C1` [Edoxaban (Savaysa)], the “Bleeding, Major” value (in vivo) is listed as 3.1%; DVT or pulmonary embolism, 1.4%), the Hemorrhagic cerebral infarction (in vivo) is listed as “fibrillation, 0.3%), Intracranial hemorrhage (Nonvalvular atrial” and the Interstitial lung disease (in vivo) is listed as 0.2%). The Intracranial hemorrhage (in vivo) was “fibrillation, 0.5%; DVT or pulmonary embolism, 0.1%)”, the “Liver function tests abnormal” value (in vivo) was “fibrillation, 4.8%; DVT or pulmonary embolism, 7.8%)” and the Rash (in vivo) was “Dermatologic: Rash (3.6% to 4.2%)”.
